According to patent US10155751B2, “Pyrazolyl-substituted heteroaryls and their use as medicaments” (Boehringer Ingelheim International GmbH, priority 2015, dated 2018):

Key:
human hepatocytes = test: Human hepatocyte stability test; format: in vitro ADME; details: human hepatocyte suspension, percent of hepatic blood flow
Procedure: A more comprehensive way to measure the metabolic stability of a compound of the instant invention than microsomal stability (section 5.6) is the human hepatocyte stability test as described below. Herein the metabolic degradation for the compound in question is performed in a human hepatocyte suspension.
Human hepatocytes (typically cryopreserved) are incubated in an appropriate buffer system (e.g. Dulbecco's modified eagle medium plus 3.5 μg glucagon/500 mL, 2.5 mg insulin/500 mL and 3.75 mg/500 mL hydrocortison) containing 5% species serum.
Following a (typically) 30 min preincubation in an incubator (37° C., 10% CO2) 5 μl of the solution of the compound to be tested ([…]; from 2 mM in DMSO stock solution diluted 1:25 with medium) are added into 395 μl hepatocyte suspension (cell density is in the range of 0.25-5 Mio cells/mL, typically 1 Mio cells/mL; the final concentration of the compound in question is […], the final DMSO concentration is 0.05%).
The cells are incubated for six hours (incubator, orbital shaker) and samples (25 μl) are taken at 0, 0.5, 1, 2, 4 and 6 hours. Samples are transferred into acetonitrile and pelleted by centrifugation (5 min). The supernatant is transferred to a new 96-deepwell plate, evaporated under nitrogen and resuspended.
The decline of the compound to be tested is analyzed by HPLC-MS/MS.
CLint is calculated as follows CL_INTRINSIC=Dose/AUC=(C0/CD)/(AUD+clast/k)×1000/60.
C0: initial concentration in the incubation [μM], CD: cell density of vital cells [10^6 cells/mL], AUD: area under the data [μM×h], clast: concentration of last data point [μM], k: slope of the regression line for the compound in question decline [h−1].
The calculated in vitro hepatic intrinsic clearance can be scaled up to the intrinsic in vivo hepatic Clearance and used to predict hepatic in vivo blood clearance (CL) by the use of a liver model (well stirred model). CL_INTRINSIC_INVIVO [ml/min/kg]=(CL_INTRINSIC [μL/min/10^6cells]×hepatocellularity[10^6 cells/g liver]×liver factor [g/kg bodyweight])/1000 CL [ml/min/kg]=CL_INTRINSIC_INVIVO [ml/min/kg]×hepatic blood flow [ml/min/kg]/(CL_INTRINSIC_INVIVO [ml/min/kg]+hepatic blood flow [ml/min/kg]) Qh[%]=CL [ml/min/kg]/hepatic blood flow [ml/min/kg]) […]
Hepatocellularity, human: 120×10^6 cells/g liver
Liver factor, human: 25.7 g/kg bodyweight
Blood flow, human: 21 ml/(min×kg)
A satisfying human hepatocyte stability for a compound in question measured by this assay is represented by a Qh<20% (whereby the stability is better, the lower the Qh-value is).

[1] = tested on: SYK dependent basophil degranulation (CD63 surface expression on basophils in whole blood); test: CD63-assay (cellular assay for SYK-inhibition) in whole blood; format: cell-based; details: whole blood, DNP/anti-DNP stimulated basophils; read-out: CD63 assay EC50-value (chapter 5.2)
Procedure: In this assay, IgE raised against dinitrophenol (DNP) is incubated in whole blood where it binds to the FcεR1 on basophils. […] CD63 normally resides on the intracellular granule membrane within basophils, which upon degranulation, is then expressed on the surface where it can be detected by flow cytometry. Surface expression of CD63 correlates extremely well with the release of histamine from basophils. The CD63 assay has previously been validated as a clinical target engagement biomarker in the Fostamatinib SYK program (Braselmann et al, J. Pharm. Exp. Therap. 319:998-1008, 2006). Heparinized whole blood is mixed gently (vortex mixer) and […] per test aliquoted into a 96 well plate. Anti-DNP (1 mg/ml) is diluted 1:100 with PBS/0.1% HSA to 10 μg/ml (final concentration: 1 μg/mL). Pre-dilute DNP/BSA (5 mg/ml) to a concentration of 60 ng/ml with washing solution. Compounds: […] Reagents are provided from the Basotest® kit. Incubate 10 μl of 10 μg/ml anti DNP and 10 μl of compound with 100 μl whole blood in a 37° C. pre-warmed water bath. After 30 minutes, 20 μl of STIMULATION BUFFER is added to the whole blood samples and vortexed gently. Incubate the samples for 10 min at 37° C. in a water bath. 100 μl of DNP/BSA is added per test to the whole blood. Add 100 μl of the WASHING SOLUTION to a further test tube as a negative control. Add 100 μl of DNP/BSA (final 30 ng/ml) in the compound tubes. All tubes are mixed once more. The samples are incubated for 20 min at 37° C. in a water bath. Stop degranulation by incubating the samples on ice for 5 min. Add 20 μl of STAINING REAGENT to each tube. Vortex and incubate the tubes for 20 min in an ice bath, covered to prevent exposure to light. The whole blood samples are lysed and fixed with 2 ml of pre-warmed (room temperature) 1×LYSING SOLUTION. Vortex and incubate for 10 min at room temperature. Spin down cells (5 min, 250×g, 4° C.). Discard the supernatant. Add 3 ml of WASHING SOLUTION to the tubes. Centrifuge the tubes (5 min, 250×g, 4° C.). Aspirate the supernatant. Add 200 μl WASHING SOLUTION to the cell pellet, vortex. Incubate the tubes in a covered ice bath until analysis. Cells are analysed by flow cytometry using the blue-green excitation light (488 nm argon-ion laser). Acquire data by using fluorescence triggering in the FL2 channel (PE) to gate on basophilic granulocytes expressing high amounts of IgE. This live gating reduces the amount of data and saves memory capacity. Acquire at least 500 basophils per sample. For data evaluation and calculation, the measurement of the negative control (unstimulated blood) was set as 100% control and the measurement of the positive control (DNP/anti-DNP stimulated blood) was set as 0% control. Based on these values the % value for the measurement of each substance concentration was calculated, a concentration-effect curve fitted and an EC50 value calculated using GraphPad Prism version 6.01 for Windows. The EC50 value was calculated using a nonlinear fitting (log(inhibitor) vs. response—variable slope). Normally, the % control values calculated are between 0% and 100% values but may also occur outside these limits in individual cases based on variability or compound characteristics.

Q: C[C@@H](Oc1cc(-c2cnn(C3CCC3)c2)cc2nn(C)c(F)c12)[C@H]1CNC(=O)C1 [Example 1, (R)-4-{(R)-1-[6-(1-Cyclobutyl-1H-pyrazol-4-yl)-3-fluoro-2-methyl-2H-indazol-4-yloxy]-ethyl}-pyrrolidin-2-one] was tested. Which “stability in human hepatocytes (chapter 5.7) HEPhu” value (“stability in human hepatocytes” for short) (human hepatocytes) did it give?
A: 10 % Qh

Q: What about the EC50 [1] of the same compound?
A: 41 nM

Q: Which results are given for CC(C)n1cc(-c2cc(O[C@H](C)[C@H]3CNC(=O)C3)c3c(F)n(C)nc3c2)cn1 [Example 2, (R)-4-{(R)-1-[3-Fluoro-6-(1-isopropyl-1H-pyrazol-4-yl)-2-methyl-2H-indazol-4-yloxy]-ethyl}-pyrrolidin-2-one]?
A: stability in human hepatocytes (chapter 5.7) HEPhu (human hepatocytes): <4 % Qh; EC50 [1]: 45 nM

Q: With Cc1c2c(O[C@H](C)[C@H]3CNC(=O)O3)nc(-c3cnn(C(C)(C)C)c3)cc2nn1C [Example 3, (R)-5-{(R)-1-[6-(1-tert-Butyl-1H-pyrazol-4-yl)-2,3-dimethyl-2H-pyrazolo[4,3-c]pyridin-4-yloxy]-ethyl}-oxazolidin-2-one] as the compound, how does the “stability in human hepatocytes” value (human hepatocytes) read?
A: 7 % Qh

Q: What about the EC50 [1] of the same compound?
A: 51 nM

Q: How did the “stability in human hepatocytes” value (human hepatocytes) turn out when Cc1c2c(O[C@H](C)[C@H]3CNC(=O)C3)nc(-c3c[nH]nc3C(C)(C)C)cc2nn1C [Example 4, (R)-4-{(R)-1-[6-(3-tert-Butyl-1H-pyrazol-4-yl)-2,3-dimeth-yl-2H-pyrazolo[4,3-c]pyridin-4-yloxy]-ethyl}-pyrrolidin-2-one] was run?
A: 10 % Qh

Q: And the EC50 [1]?
A: 64 nM

Q: Which results are given for C[C@@H](Oc1cc(-c2cnn(C3CC3)c2)cc2nn(C)c(F)c12)[C@H]1CNC(=O)C1 [Example 5, (R)-4-{(R)-1-[6-(1-Cycloprop-yl-1H-pyrazol-4-yl)-3-fluoro-2-methyl-2H-indazol-4-yloxy]-ethyl}-pyrrolidin-2-one]?
A: stability in human hepatocytes (chapter 5.7) HEPhu (human hepatocytes): <4 % Qh; EC50 [1]: 52 nM

Q: Which “stability in human hepatocytes” value (human hepatocytes) does the source give for C[C@@H](Oc1cc(-c2cnn(CC3CC3)c2)cc2nn(C)c(F)c12)[C@H]1CNC(=O)C1 [Example 6, (R)-4-{(R)-1-[6-(1-Cycloprop-ylmethyl-1H-pyrazol-4-yl)-3-fluoro-2-methyl-2H-indazol-4-yloxy]-ethyl}-pyrrolidin-2-one] here?
A: 6 % Qh

Q: What about the EC50 [1] of the same compound?
A: 42 nM

Q: Which results are given for C[C@@H](Oc1cc(-c2cnn(C3CCC(F)(F)C3)c2)cc2nn(C)c(F)c12)[C@H]1CNC(=O)C1 (some centres unmarked) [Example 7]?
A: stability in human hepatocytes (chapter 5.7) HEPhu (human hepatocytes): <4 % Qh; EC50 [1]: 53 nM

Q: With Cc1c2c(O[C@H](C)[C@H]3CNC(=O)C3)cc(-c3cnn(CC4CC4)c3)cc2nn1C [Example 8, (R)-4-{(R)-1-[6-(1-Cyclopropylmethyl-1H-pyrazol-4-yl)-2,3-dimethyl-2H-indazol-4-yloxy]-ethyl}-pyrrolidin-2-one] as the compound, how does the “stability in human hepatocytes” value (human hepatocytes) read?
A: 5 % Qh

Q: And the EC50 [1]?
A: 47 nM

Q: Which “stability in human hepatocytes” value (human hepatocytes) does the source give for Cc1c2c(O[C@H](C)[C@H]3CNC(=O)C3)cc(-c3cnn([C@@H]4CCOC(C)(C)C4)c3)cc2nn1C [Example 9, (R)-4-((R)-1-{6-[1-((R)-2,2-Dimethyl-tetrahydro-pyran-4-yl)-1H-pyrazol-4-yl]-2,3-dimethyl-2H-indazol-4-yloxy}-ethyl)-pyrrolidin-2-one] here?
A: 6 % Qh

Q: And the EC50 [1]?
A: 52 nM

Q: With Cc1c2c(O[C@H](C)[C@H]3CNC(=O)C3)cc(-c3cnn([C@H]4CO[C@@H]5CCCO[C@@H]54)c3)cc2nn1C [Example 10, 4-(1-{6-[(R)-(3S,3aR,7aR)-1-(Hexahydro-furo[3,2-b]pyran-3-yl)-1H-pyrazol-4-yl]-2,3-dimethyl-2H-indazol-4-yloxy}-ethyl)-pyrrolidin-2-one] as the compound, how does the “stability in human hepatocytes” value (human hepatocytes) read?
A: 9 % Qh

Q: What about the EC50 [1] of the same compound?
A: 65 nM

Q: Cc1c2c(O[C@H](C)[C@H]3CNC(=O)C3)cc(-c3cnn(CCF)c3)cc2nn1C [Example 11, (R)-4-((R)-1-{6-[1-(2-Fluoro-ethyl)-1H-pyrazol-4-yl]-2,3-dimethyl-2H-indazol-4-yloxy}-ethyl)-pyrrolidin-2-one] was tested. Which “stability in human hepatocytes” value (human hepatocytes) did it give?
A: 4 % Qh

Q: What about the EC50 [1] of the same compound?
A: 65 nM

Q: What does the source list for C[C@@H](Oc1cc(-c2cnn(CCC(F)(F)F)c2)cc2nn(C)c(F)c12)[C@H]1CNC(=O)C1 [Example 12, (R)-4-((R)-1-{3-Fluoro-2-methyl-6-[1-(3,3,3-trifluoro-propyl)-1H-pyrazol-4-yl]-2H-indazol-4-yloxy}-ethyl)-pyrrolidin-2-one]?
A: stability in human hepatocytes (chapter 5.7) HEPhu (human hepatocytes): <4 % Qh; EC50 [1]: 67 nM

Q: With Cc1c2c(O[C@H](C)[C@H]3CNC(=O)C3)cc(-c3cnn(C(C)(C)C)c3)cc2nn1C [Example 13, (R)-4-{(R)-1-[6-(1-tert-Butyl-1H-pyrazol-4-yl)-2,3-dimethyl-2H-indazol-4-yloxy]-ethyl}-pyrrolidin-2-one] as the compound, how does the “stability in human hepatocytes” value (human hepatocytes) read?
A: 3 % Qh

Q: What about the EC50 [1] of the same compound?
A: 58 nM

Q: How did the “stability in human hepatocytes” value (human hepatocytes) turn out when C[C@@H](Oc1cc(-c2cnn(C3CC(C)(C)OC3(C)C)c2)cc2nn(C)c(F)c12)[C@H]1CNC(=O)C1 (stereo partly drawn) [Example 14, (R)-4-((R)-1-{3-Fluoro-2-methyl-6-[1-(2,2,5,5-tetramethyl-tetrahydro-furan-3-yl)-1H-pyrazol-4-yl]-2H-indazol-4-yloxy}-ethyl)-pyrrolidin-2-one] was run?
A: 12 % Qh

Q: What about the EC50 [1] of the same compound?
A: 76 nM

Q: For Cc1c2c(O[C@H](C)[C@H]3CNC(=O)C3)cc(-c3cnn(C4CC(C)(C)OC4(C)C)c3)cc2nn1C (stereo partly drawn) [Example 16, (R)-4-((R)-1-{2,3-Dimethyl-6-[1-(2,2,5,5-tetramethyl-tetrahydro-furan-3-yl)-1H-pyrazol-4-yl]2H-indazol-4-yloxy}-ethyl)-pyrrolidin-2-one], which “stability in human hepatocytes” value (human hepatocytes) is on record?
A: 6 % Qh

Q: And the EC50 [1]?
A: 82 nM

Q: Which “stability in human hepatocytes” value (human hepatocytes) does the source give for Cc1c2c(O[C@H](C)[C@H]3CNC(=O)C3)cc(-c3cnn(C(C)(C)C#N)c3)cc2nn1C [Example 17, 2-(4-{2,3-Dimethyl-4-[(R)-1-((R)-5-oxo-pyrrolidin-3-yl)-ethoxy]-2H-indazol-6-yl}-pyrazol-1-yl)-2-methyl-propionitrile] here?
A: 4 % Qh

Q: And the EC50 [1]?
A: 92 nM
